The source of these data is patent US8796303B2, “Imidazo[2,1-G][1,7]naphthyridines for treating respiratory syncytial virus infections” (Biota Scientific Management Pty Ltd., priority 2010, dated 2014).

≈ marks a conversion by molar mass, not a printed value. Read-outs that look alike come from different tables or passages of the source. A value given as a limit tells only on which side of the number the result lay.

The test system of data set [1] is RSV A2. The experiment in a line: RSV antiviral CPE assay in HEp2 cells (MTT). It is filed as cell-based, respiratory syncytial virus. To be noted: human respiratory syncytial virus, HEp-2, 120 h; HEp2 cells, RSV A2 moi ~0.01, 5 days, CPE by MTT. The protocol: Compounds of the invention were tested for their antiviral activity against respiratory syncytial virus. Cytopathic effect (CPE) assays were performed essentially as described in the literature (see for example Watanabe et al, 1994, J. Virological Methods, 48:257). Serial dilutions of the test compounds were made in 96 well plates. HEp2 cells (1.0×10^4 cells/well) were infected with RSV at a low multiplicity of infection (e.g. RSV A2 at an moi of ˜0.01) and added to plates to assess antiviral activity. Uninfected HEp2 cells were used to assess compound cytotoxicity. Assays were incubated for 5 days at 37° C. in a 5% CO2 atmosphere. The extent of CPE was determined via metabolism of the vital dye 3-(4,5-dimethylthiaxol-2-yl)-2,5-diphenyltetrazolium bromide (MTT). MTT (1 mg/ml) was added to each well and plates incubated for 2 hours incubation at 37° C. Wells were aspirated, iso-propanol (200 μL) was added and absorbance values read at 540/650 nm. Compound concentrations that inhibited CPE by 50% (EC50) and developed cytotoxicity (CC50) were calculated using non-linear regression analysis. The CC50 values of the compounds tested were determined to be >5000 nM.

Data set [2] addresses T1, hERG ion channel (Homo sapiens, UniProt Q12809).
T1 construct: expressed in transfected cells; host or cells: CHO cells
Kind of data set: hERG ion channel inhibition (ScreenPatch assay, IonWorks Quattro). Conditions: for IC50: CHO cells stably transfected with hERG; for inhibition at 5 min, 100 µM: human, CHO cells stably transfected with hERG cDNA. Format: cell-based. The protocol: The effects of compounds of the invention on the on hERG ion channel can be evaluated using an IonWorks Quattro™ system essentially as described in the literature (see for example Bridgland-Tayor et al, 2006, J. Pharmacological and Toxicological Methods 54: 189).
Four compound concentrations were applied to naïve cells via steel needles of a 48-channel pipettor. Each application consisted of addition of 6 μL of 2× concentrated test compounds to the total of 12 μL of final volume of the extracellular well of the Population Patch Clamp™ (PPC) planar electrode. Duration of exposure to each test compound concentration was at least five minutes.
Intracellular solution was loaded into the intracellular compartment of the PPC planar electrode. Cell suspensions (CHO cells stably transfected with hERG cDNA) are pipetted into the wells of the PPC planar electrode. After establishment of a whole-cell configuration, membrane currents were recorded using patch clamp amplifier in the IonWorks Quattro™ system. Two recordings of the ion channel currents were performed (before and 5 minutes after test compound application). hERG current was measured using a pulse pattern with fixed amplitudes (conditioning prepulse: −80 mV for 25 ms; test pulse +40 mV for 80 ms) from a holding potential of 0 mV. hERG current was measured as a difference between the peak current at 1 ms after the test step to +40 mV and the steady state current at the end of the step to +40 mV.
Data acquisition and analyses was performed using the IonWorks Quattro™ system operation software. The decrease in current amplitude after test compound application was used to calculate the percent block relative to control. A compound is considered to have a low hERG inhibition when the hERG IC50 is >500 times higher than the RSV A2 EC50. The hERG IC50 of the compounds tested was >500 times higher than the corresponding RSV A2 EC50 values.

The nature of data set [3]: Aqueous solubility by laser nephelometry. It is filed as physicochemical. To be noted: kinetic from dmso stock, 1% DMSO, 30 minute incubation at 25° C., range 1.6-100. The procedure:
Test compounds prepared in DMSO were screened in duplicate over a range of concentrations (1.6-100 ug/mL) in different aqueous media (for example pH2 or pH6.5 buffers which are relevant to the stomach and upper regions of the small intestine). Test compounds were serially diluted in 100% DMSO ranging from 10-0.16 mg/mL. These diluted compounds were then added to test plates (UV Star Griener 96 well plates) containing assay buffers with a further 1:100 dilution keeping a constant 1% DMSO concentration across the plate.

[4] abbreviates: pH 2, simulated gastric fluid, pH2 buffer, read-out: Solubility at pH2.
Where [5] appears, read: pH 6.5, aqueous buffer, pH6.5 buffer, read-out: Solubility at pH6.5.

T1 sequence (Q12809 whole entry): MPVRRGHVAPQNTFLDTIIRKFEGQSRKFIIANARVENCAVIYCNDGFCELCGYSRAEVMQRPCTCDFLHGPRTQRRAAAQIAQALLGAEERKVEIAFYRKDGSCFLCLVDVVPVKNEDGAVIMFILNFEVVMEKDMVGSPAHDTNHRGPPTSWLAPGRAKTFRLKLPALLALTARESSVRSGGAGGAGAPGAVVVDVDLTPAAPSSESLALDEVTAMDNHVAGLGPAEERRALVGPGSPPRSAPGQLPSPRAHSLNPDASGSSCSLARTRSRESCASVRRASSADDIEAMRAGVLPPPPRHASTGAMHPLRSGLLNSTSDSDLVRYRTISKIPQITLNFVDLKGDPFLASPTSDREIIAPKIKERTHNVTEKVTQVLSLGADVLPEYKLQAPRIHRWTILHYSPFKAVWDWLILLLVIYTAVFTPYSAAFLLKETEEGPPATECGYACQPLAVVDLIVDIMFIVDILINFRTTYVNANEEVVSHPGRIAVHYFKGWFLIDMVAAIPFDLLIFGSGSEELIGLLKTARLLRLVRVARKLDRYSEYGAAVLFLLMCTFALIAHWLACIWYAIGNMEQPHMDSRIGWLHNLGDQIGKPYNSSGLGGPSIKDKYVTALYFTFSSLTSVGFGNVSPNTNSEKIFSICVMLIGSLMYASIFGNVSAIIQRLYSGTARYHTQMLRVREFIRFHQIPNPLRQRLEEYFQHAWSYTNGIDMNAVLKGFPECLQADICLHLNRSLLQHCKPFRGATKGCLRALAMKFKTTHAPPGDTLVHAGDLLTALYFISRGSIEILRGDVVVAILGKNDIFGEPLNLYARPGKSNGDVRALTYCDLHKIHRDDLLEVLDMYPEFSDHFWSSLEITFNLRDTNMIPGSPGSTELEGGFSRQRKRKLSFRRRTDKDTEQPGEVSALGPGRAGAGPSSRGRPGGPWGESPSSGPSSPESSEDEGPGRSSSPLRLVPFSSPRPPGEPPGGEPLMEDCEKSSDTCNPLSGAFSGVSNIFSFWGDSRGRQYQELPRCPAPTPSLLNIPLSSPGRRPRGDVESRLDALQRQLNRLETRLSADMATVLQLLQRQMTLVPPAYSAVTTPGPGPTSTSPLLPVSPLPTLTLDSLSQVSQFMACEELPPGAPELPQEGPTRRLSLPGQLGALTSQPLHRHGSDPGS

The molecule `Cc1nocc1C(=O)N1CCN2C(=O)c3ncccc3CC12c1ccc(Cl)cc1` (stereo not shown) [Compound 2, 10a-(4-chlorophenyl)-1-[(3-methyl-1,2-oxazol-4-yl)carbonyl]-2,3,10,10a-tetrahydroimidazo[2,1-g][1,7]naphthyridin-5(1H)-one] yielded a half-maximal effective concentration (EC50) in data set [1] of 5.2 nM. Also, in data set [2], it took 99200 nM to reach half-maximal inhibition (IC50) and the inhibition at 5 min, 100 µM turned out to be 50.2%. For the same molecule, the solubility at 30 min in data set [3] (setting [4]) was 50 to 100 µg/mL (≈ 122 to 245 µM). For the same molecule, the solubility at 30 min in data set [3] (setting [5]) is greater than 100 µg/mL.

Turning to `Cc1nocc1C(=O)N1CCN2C(=O)c3ncccc3CC12C1CCC(F)(F)CC1` (stereo not shown) [Compound 12, 10a-(4,4-difluorocyclohexyl)-1-[(3-methyl-1,2-oxazol-4-yl)carbonyl]-2,3,10,10a-tetrahydroimidazo[2,1-g][1,7]naphthyridin-5(1H)-one], the concentration giving a half-maximal response (EC50) in data set [1] was found to be 64.4 nM. The solubility at 30 min was 50 to 100 µg/mL (≈ 120 to 240 µM) in data set [3] (setting [4]) and greater than 100 µg/mL in data set [3] (setting [5]).

Molecule `Cc1cc(C23Cc4nccnc4C(=O)N2CCN3C(=O)c2conc2C)ccc1F` (stereo not shown) [Compound 9, 5a-(4-fluoro-3-methylphenyl)-6-[(3-methyl-1,2-oxazol-4-yl)carbonyl]-5a,6,7,8-tetrahydroimidazo[1′,2′:1,6]pyrido[3,4-b]pyrazin-10(5H)-one] yielded a half-maximal effective concentration (EC50) in data set [1] of 9 nM. Besides, the solubility at 30 min in data set [3] (setting [4]) is 50 to 100 µg/mL (≈ 123 to 245 µM); in data set [3] (setting [5]), greater than 100 µg/mL.

In the case of `Cc1cc([C@]23Cc4cccnc4C(=O)N2CCN3C(=O)c2conc2C)ccc1F` (single isomer, unassigned) [Compound 6A], the 50% effective concentration (EC50) in data set [1] is 7.7 nM. In addition, the solubility at 30 min was 50 to 100 µg/mL (≈ 123 to 246 µM) in data set [3] (setting [4]) and greater than 100 µg/mL in data set [3] (setting [5]).

In data set [1], `Cc1nocc1C(=O)N1CCN2C(=O)c3ncccc3CC12c1ccc2c(c1)CCO2` (stereo not shown) [Compound 14, 10a-(2,3-dihydro-1-benzofuran-5-yl)-1-[(3-methyl-1,2-oxazol-4-yl)carbonyl]-2,3,10,10a-tetrahydroimidazo[2,1-g][1,7]naphthyridin-5(1H)-one] came in with an EC50 of 13.6 nM. In addition, the values for the solubility at 30 min in data set [3] (setting [4]) and in data set [3] (setting [5]) were greater than 100 µg/mL and 50 to 100 µg/mL (≈ 120 to 240 µM), respectively.

With `Cc1nocc1C(=O)N1CCN2C(=O)c3ncccc3CC12c1ccccc1Cl` (stereo not shown) [Compound 10, 10a-(2-chlorophenyl)-1-[(3-methyl-1,2-oxazol-4-yl)carbonyl]-2,3,10,10a-tetrahydroimidazo[2,1-g][1,7]naphthyridin-5(1H)-one], in data set [1], the EC50 is 36.9 nM. The solubility at 30 min in data set [3] (setting [4]) and in data set [3] (setting [5]) was greater than 100 µg/mL each time.

`COc1ccc(C23Cc4cccnc4C(=O)N2CCN3C(=O)c2conc2C)cc1` (stereo not shown) [Compound 3, 10a-(4-methoxyphenyl)-1-[(3-methyl-1,2-oxazol-4-yl)carbonyl]-2,3,10,10a-tetrahydroimidazo[2,1-g][1,7]naphthyridin-5(1H)-one] displayed a half-maximal effective concentration (EC50) in data set [1] of 83.1 nM. For the same molecule, the solubility at 30 min in data set [3] (setting [4]) and in data set [3] (setting [5]) was greater than 100 µg/mL each time.

`Cc1nocc1C(=O)N1CCN2C(=O)c3ncccc3C[C@]12c1ccc(F)cc1` (single isomer, unassigned) [Compound 4A] registered an EC50 in data set [1] of 16.3 nM. The solubility at 30 min in data set [3] (setting [4]) and in data set [3] (setting [5]) was greater than 100 µg/mL throughout.

The molecule `Cc1nocc1C(=O)N1CCN2C(=O)c3nccnc3C[C@]12c1ccc(Cl)cc1` (single isomer, unassigned) [Compound 1A] displayed an EC50 in data set [1] of 5.2 nM. The solubility at 30 min in data set [3] (setting [4]) is 50 to 100 µg/mL (≈ 122 to 244 µM); in data set [3] (setting [5]), greater than 100 µg/mL.

Turning to `Cc1nocc1C(=O)N1CCN2C(=O)c3ncccc3CC12c1ccc(F)c(F)c1` (stereo not shown) [Compound 7, 10a-(3,4-difluorophenyl)-1-[(3-methyl-1,2-oxazol-4-yl)carbonyl]-2,3,10,10a-tetrahydroimidazo[2,1-g][1,7]naphthyridin-5(1H)-one], the concentration for a half-maximal effect (EC50) in data set [1] is 35 nM. Also, the solubility at 30 min in data set [3] (setting [4]) was 25 to 50 µg/mL (≈ 60.9 to 122 µM); in data set [3] (setting [5]) it was 50 to 100 µg/mL (≈ 122 to 244 µM).

In turn, `Cc1nocc1C(=O)N1CCN2C(=O)c3nccnc3C[C@]12c1ccc(F)cc1` (single isomer, unassigned) [Compound 5A] had an EC50 in data set [1] of 12.4 nM. Besides, the solubility at 30 min in data set [3] (setting [4]) and in data set [3] (setting [5]) was greater than 100 µg/mL each time.

In data set [1], `Cc1nocc1C(=O)N1CCN2C(=O)c3ncccc3C[C@]12c1ccc(Cl)cc1` (single isomer, unassigned) [Compound 2A] gave a half-maximal effective concentration (EC50) of 4.1 nM. In data set [2], this molecule showed an IC50 of 130000 nM and an inhibition at 5 min, 100 µM of 41.4%. In addition, the solubility at 30 min in data set [3] (setting [4]) is 50 to 100 µg/mL (≈ 122 to 245 µM). Further, the solubility at 30 min in data set [3] (setting [5]) is greater than 100 µg/mL.

The molecule `Cc1nocc1C(=O)N1CCN2C(=O)c3ncccc3CC12c1ccc(F)cc1` (stereo not shown) [Compound 4, 10a-(4-fluorophenyl)-1-[(3-methyl-1,2-oxazol-4-yl)carbonyl]-2,3,10,10a-tetrahydroimidazo[2,1-g][1,7]naphthyridin-5(1H)-one] came in with a 50% effective concentration (EC50) in data set [1] of 27.5 nM. Besides, the solubility at 30 min in data set [3] (setting [4]) and in data set [3] (setting [5]) was greater than 100 µg/mL in each case.

With `Cc1nocc1C(=O)N1CCN2C(=O)c3nccnc3CC12c1ccc(F)c(F)c1` (stereo not shown) [Compound 8, 5a-(3,4-difluorophenyl)-6-[(3-methyl-1,2-oxazol-4-yl)carbonyl]-5a,6,7,8-tetrahydroimidazo[1′,2′:1,6]pyrido[3,4-b]pyrazin-10(5H)-one], the EC50 in data set [1] worked out at 30.5 nM. The solubility at 30 min in data set [3] (setting [4]) and in data set [3] (setting [5]) was greater than 100 µg/mL in each case.
